# In EP1953147A1, “HETEROCYCLIC COMPOUND AND MEDICINAL APPLICATION THEREOF” (priority 2005, dated 2007):
# Test system: ΔG/SEAP/HCV E1E2
# Test: Effect of test substance on cell infection with HCV pseudotype virus (SEAP reporter assay in HepG2 cells)
# Assay type: cell-based
# Conditions: Hepatitis C virus
row,SMILES,IC50 [nM]
1,"COc1cc(C)cc(-c2nn(-c3cc(-c4cccnn4)ccc3C(F)(F)F)c(=O)c3c2CCC3)c1 [Example 1-4, 4-(3-methoxy-5-methyl-phenyl)-2-[5-(pyridazin-3-yl)-2-trifluoromethyl-phenyl]-2,5,6,7-tetrahydro-cyclopenta[d]pyridazin-1-one]",< 100
2,"COc1cc(OC)cc(-c2nn(-c3cc(N4CC[C@H](O)C4)ccc3N(C)C)c(=O)c3c2CCC3)c1 [Example 1-6, 4-(3,5-dimethoxy-phenyl)-2-[2-dimethylamino-5-((S)-3-hydroxy-pyrrolidin-1-yl)-phenyl]-2,5,6,7-tetrahydro-cyclopenta[d]pyridazin-1-one]",100 to 10000
3,"COc1cc(OC)cc(-c2nn(-c3cccc(N4CC[C@H](O)C4)n3)c(=O)c3c2CCC3)c1 [Example 1-7, 4-(3,5-dimethoxy-phenyl)-2-[6-((S)-3-hydroxy-pyrrolidin-1-yl)-pyridin-2-yl]-2,5,6,7-tetrahydro-cyclopenta[d]pyridazin-1-one]",100 to 10000
4,"COC(=O)c1ccc(C(F)(F)F)c(-n2nc(-c3cc(OC)cc(OC)c3)c3c(c2=O)CCC3)c1 [Example 1-9, methyl 3-[4-(3,5-dimethoxy-phenyl)-1-oxo-1,5,6,7-tetrahydro-cyclopenta[d]pyridazin-2-yl]-4-trifluoromethyl-benzoate]",< 100
5,"COc1cc(OC)cc(-c2nn(-c3cc(C(=O)O)ccc3C(F)(F)F)c(=O)c3c2CCC3)c1 [Example 1-10, 3-[4-(3,5-dimethoxy-phenyl)-1-oxo-1,5,6,7-tetrahydro-cyclopenta[d]pyridazin-2-yl]-4-trifluoromethyl-benzoic acid]",100 to 10000
6,"CNC(=O)c1ccc(C(F)(F)F)c(-n2nc(-c3cc(OC)cc(OC)c3)c3c(c2=O)CCC3)c1 [Example 1-11, 3-[4-(3,5-dimethoxy-phenyl)-1-oxo-1,5,6,7-tetrahydro-cyclopenta[d]pyridazin-2-yl]-N-methyl-4-trifluoromethyl-benzamide]",< 100
7,"COc1cc(OC)cc(-c2nn(-c3cc(F)ccc3C(F)(F)F)c(=O)c3c2CCC3)c1 [Example 1-12, 4-(3,5-dimethoxy-phenyl)-2-(5-fluoro-2-trifluoromethylphenyl)-2,5,6,7-tetrahydro-cyclopenta[d]pyridazin-1-one]",100 to 10000
8,"COc1cc(OC)cc(-c2nn(-c3cc(OCCCO)ccc3C(F)(F)F)c(=O)c3c2CCC3)c1 [Example 1-13, 4-(3,5-dimethoxy-phenyl)-2-[5-(3-hydroxy-propoxy)-2-trifluoromethyl-phenyl]-2,5,6,7-tetrahydro-cyclopenta[d]pyridazin-1-one]",< 100
9,"COc1cc(OC)cc(-c2nn(-c3cc(N4CC[C@H](O)C4)ccc3OC)c(=O)c3c2CCC3)c1 [Example 1-15, 4-(3,5-dimethoxy-phenyl)-2-[5-((S)-3-hydroxy-pyrrolidin-1-yl)-2-methoxy-phenyl]-2,5,6,7-tetrahydro-cyclopenta[d]pyridazin-1-one]",100 to 10000
10,"O=c1c2c(c(-c3cccs3)nn1-c1cc(N3CC[C@H](O)C3)ccc1C(F)(F)F)CCC2 [Example 1-17, 2-[5-((S)-3-hydroxy-pyrrolidin-1-yl)-2-trifluoromethylphenyl]-4-(thiophen-2-yl)-2,5,6,7-tetrahydro-cyclopenta[d]pyridazin-1-one]",< 100
11,"O=c1c2c(c(C3=CCCC3)nn1-c1cc(N3CC[C@H](O)C3)ccc1C(F)(F)F)CCC2 [Example 1-18, 4-(cyclopent-1-enyl)-2-[5-((S)-3-hydroxy-pyrrolidin-1-yl)-2-trifluoromethyl-phenyl]-2,5,6,7-tetrahydro-cyclopenta[d]pyridazin-1-one]",100 to 10000
12,"O=c1c2c(c(C3CCCC3)nn1-c1cc(N3CC[C@H](O)C3)ccc1C(F)(F)F)CCC2 [Example 1-19, 4-cyclopentyl-2-[5-((S)-3-hydroxy-pyrrolidin-1-yl)-2-trifluoromethyl-phenyl]-2,5,6,7-tetrahydro-cyclopenta[d]pyridazin-1-one]",100 to 10000
13,"Cc1cc(-c2nn(-c3cc(N4CC(CO)C4)ccc3C(F)(F)F)c(=O)c3c2CCN3CCO)ccc1F [Example 1-23, 4-(4-fluoro-3-methyl-phenyl)-1-(2-hydroxy-ethyl)-6-[5-(3-hydroxymethyl-azetidin-1-yl)-2-trifluoromethylphenyl]-1,2,3,6-tetrahydro-pyrrolo[2,3-d]pyridazin-7-one]",< 100
14,"CC(=O)N[C@@H]1CCN(c2ccc(C(F)(F)F)c(-n3nc(-c4cc(C)cc(C)c4)c4c(c3=O)N(CC(N)=O)CC4)c2)C1 [Example 1-27, {6-[5-((R)-3-acetylamino-pyrrolidin-1-yl)-2-trifluoromethyl-phenyl]-4-(3,5-dimethyl-phenyl)-7-oxo-2,3,6,7-tetrahydro-pyrrolo[2,3-d]pyridazin-1-yl}-acetamide]",< 100
15,"COc1cncc(-c2nn(-c3cc(N4CC[C@H](O)C4)ccc3C(F)(F)F)c(=O)c3c2CCN3C(N)=O)c1 [Example 1-29, 6-[5-((S)-3-hydroxy-pyrrolidin-1-yl)-2-trifluoromethylphenyl]-4-(5-methoxy-pyridin-3-yl)-7-oxo-2,3,6,7-tetrahydro-pyrrolo[2,3-d]pyridazine-1-carboxamide]",< 100
16,"Cc1cc(C)cc(-c2nn(-c3cc(N4CC[C@H](O)C4)ccc3C(F)(F)F)c(=O)c3c2CC(C)N3)c1 (stereo partly drawn) [Example 1-33, 4-(3,5-dimethyl-phenyl)-6-[5-((S)-3-hydroxy-pyrrolidin-1-yl)-2-trifluoromethyl-phenyl]-2-methyl-1,2,3,6-tetrahydro-pyrrolo[2,3-d]pyridazin-7-one]",< 100
17,"COc1cc(OC)cc(-c2nn(-c3cc(N4CC[C@H](O)C4)ccc3C(F)(F)F)c(=O)c3c2OCC3)c1 [Example 1-35, 7-(3,5-dimethoxy-phenyl)-5-[5-((S)-3-hydroxy-pyrrolidin-1-yl)-2-trifluoromethyl-phenyl]-3,5-dihydro-2H-furo[2,3-d]pyridazin-4-one]",< 100
18,"COc1cc(OC)cc(-c2nn(-c3cc(N4CC[C@H](O)C4)ccc3C(F)(F)F)c(=O)c3c2SCC3)c1 [Example 1-37, 7-(3,5-dimethoxy-phenyl)-5-[5-((S)-3-hydroxy-pyrrolidin-1-yl)-2-trifluoromethyl-phenyl]-3,5-dihydro-2H-thieno[2,3-d]pyridazin-4-one]",< 100
19,"Cc1cc(-c2cnco2)cc(-c2nn(-c3cc(N4CC[C@H](O)C4)ccc3C(F)(F)F)c(=O)c3c2CCCN3)c1 [Example 1-38, 7-[5-((S)-3-hydroxy-pyrrolidin-1-yl)-2-trifluoromethylphenyl]-5-[3-methyl-5-(oxazol-5-yl)-phenyl]-1,3,4,7-tetrahydro-2H-pyrido[2,3-d]pyridazin-8-one]",< 100
20,"COc1cc(OC)cc(-c2nn(-c3cc(N4CC[C@H](O)C4)ccc3C(F)(F)F)c(=O)c3c2CCCN3CCO)c1 [Example 1-39, 5-(3,5-dimethoxy-phenyl)-1-(2-hydroxy-ethyl)-7-[5-((S)-3-hydroxy-pyrrolidin-1-yl)-2-trifluoromethylphenyl]-1,3,4,7-tetrahydro-2H-pyrido[2,3-d]pyridazin-8-one]",< 100
21,"COc1cc(OC)cc(-c2nn(-c3cc(N4CC(CO)C4)ccc3C(F)(F)F)c(=O)c3c2CCCN3CCO)c1 [Example 1-40, 5-(3,5-dimethoxy-phenyl)-1-(2-hydroxy-ethyl)-7-[5-(3-hydroxymethyl-azetidin-1-yl)-2-trifluoromethylphenyl]-1,3,4,7-tetrahydro-2H-pyrido[2,3-d]pyridazin-8-one]",< 100
22,"COc1cc(OC)cc(-c2nn(-c3cc(N)ccc3C(F)(F)F)c(=O)c3c2CCN3CCO)c1 [Example 1-41, 6-(5-amino-2-trifluoromethyl-phenyl)-4-(3,5-dimethoxy-phenyl)-1-(2-hydroxy-ethyl)-1,2,3,6-tetrahydro-pyrrolo[2,3-d]pyridazin-7-one]",< 100
23,"COc1cc(OC)cc(-c2nn(-c3cc(N4CC(CO)C4)ccc3C(F)(F)F)c(=O)c3c2CCN3)c1 [Example 1-42, 4-(3,5-dimethoxy-phenyl)-6-[5-(3-hydroxymethyl-azetidin-1-yl)-2-trifluoromethyl-phenyl]-1,2,3,6-tetrahydro-pyrrolo[2,3-d]pyridazin-7-one]",< 100
24,"COc1cc(OC)cc(-c2nn(-c3cc(NCC(CO)CO)ccc3C(F)(F)F)c(=O)c3c2CCN3CCO)c1 [Example 1-43, 4-(3,5-dimethoxy-phenyl)-1-(2-hydroxy-ethyl)-6-[5-(3-hydroxy-2-hydroxymethyl-propylamino)-2-trifluoromethyl-phenyl]-1,2,3,6-tetrahydro-pyrrolo[2,3-d]pyridazin-7-one]",< 100
25,"COc1cc(O)cc(-c2nn(-c3cc(N4CC(CO)C4)ccc3C(F)(F)F)c(=O)c3c2CCN3CCO)c1 [Example 1-44, 1-(2-hydroxy-ethyl)-4-(3-hydroxy-5-methoxyphenyl)-6-[5-(3-hydroxymethyl-azetidin-1-yl)-2-trifluoromethyl-phenyl]-1,2,3,6-tetrahydro-pyrrolo[2,3-d]pyridazin-7-one]",< 100
26,"Cc1cc(-c2cnco2)cc(-c2nn(-c3cc(N4CC[C@H](O)C4)ccc3C(F)(F)F)c(=O)c3c2CCC3)c1 [Example 2, 2-[5-((S)-3-hydroxy-pyrrolidin-1-yl)-2-trifluoromethyl-phenyl]-4-(3-methyl-5-oxazol-5-yl-phenyl)-2,5,6,7-tetrahydro-cyclopenta[d]pyridazin-1-one]",< 100
27,"Cc1cc(-c2cnco2)cc(-c2nn(-c3cc(-c4cccnn4)ccc3C(F)(F)F)c(=O)c3c2CCC3)c1 [Example 3, 4-(3-methyl-5-oxazol-5-yl-phenyl)-2-(5-pyridazin-3-yl-2-trifluoromethyl-phenyl)-2,5,6,7-tetrahydro-cyclopenta[d]pyridazin-1-one]",< 100
28,"Cc1cc(C)cc(-c2nn(-c3cc(N4CC[C@H](O)C4)ccc3C(F)(F)F)c(=O)c3c2CCC3)c1 [Example 4, 4-(3,5-dimethyl-phenyl)-2-[5-((S)-3-hydroxy-pyrrolidin-1-yl)-2-trifluoromethyl-phenyl]-2,5,6,7-tetrahydro-cyclopenta[d]pyridazin-1-one]",< 100
29,"Cc1cc(-c2cnco2)cc(-c2nn(-c3cc(-c4cccnn4)ccc3C(F)(F)F)c(=O)c3c2CC(C)N3)c1 (centres unmarked) [Example 5, 2-methyl-4-(3-methyl-5-oxazol-5-yl-phenyl)-6-(5-pyridazin-3-yl-2-trifluoromethyl-phenyl)-1,2,3,6-tetrahydro-pyrrolo[2,3-d]pyridazin-7-one]",< 100
